# Experimental data: BindingDB's records for doi:10.1016/j.bmc.2012.10.036 (Glaxosmithkline, 2012)
# Experiment: Inhibition of glucocorticoid receptor in human H13 cells assessed as inhibition of glucocorticoid-induced cell proliferation after 3 hrs by [3H]-thymidine incorporation assay
structure (smiles),measurement,value
CC[C@H]1OC(=O)[C@H](C)[C@@H](O[C@H]2C[C@@](C)(OC)[C@@H](O)[C@H](C)O2)[C@H](C)[C@@H](O[C@@H]2O[C@H](C)C[C@H](N(C)C)[C@H]2O)[C@](C)(O)C[C@@H](C)CN(CCCNC(=O)[C@H]2[C@H](C)C[C@H]3[C@@H]4CCC5=CC(=O)C=C[C@]5(C)[C@@]4(F)[C@@H](O)C[C@@]32C)[C@H](C)[C@@H](O)[C@]1(C)O,EC50,50 nM
